Data on one molecule can be found in paper PMC8622385, “Metabolites of Prickly Rose: Chemodiversity and Digestive-Enzyme-Inhibiting Potential of Rosa acicularis and the Main Ellagitannin Rugosin D” (Plants, 2021).

What all share (format): biochemical
The target in test [1] is T1, porcine pancreatic lipase (Sus scrofa, UniProt P00591).
T1 construct: lipase from porcine pancreas; purchased Sigma-Aldrich L3126 (lipase); C3028 (colipase); host or cells: porcine pancreas (tissue-derived)
T1 sequence (P00591 1-450): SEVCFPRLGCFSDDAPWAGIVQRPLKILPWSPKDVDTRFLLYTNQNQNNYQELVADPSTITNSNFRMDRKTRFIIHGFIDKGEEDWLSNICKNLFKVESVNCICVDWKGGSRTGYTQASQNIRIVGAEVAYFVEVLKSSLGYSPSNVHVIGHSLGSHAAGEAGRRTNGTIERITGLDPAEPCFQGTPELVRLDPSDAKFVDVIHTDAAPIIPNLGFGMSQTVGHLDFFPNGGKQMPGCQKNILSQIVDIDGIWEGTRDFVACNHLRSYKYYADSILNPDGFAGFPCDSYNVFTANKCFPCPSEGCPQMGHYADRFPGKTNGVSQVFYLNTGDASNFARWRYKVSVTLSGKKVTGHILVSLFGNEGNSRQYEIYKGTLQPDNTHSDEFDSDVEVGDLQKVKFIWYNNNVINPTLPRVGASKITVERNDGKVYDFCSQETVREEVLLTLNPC
T1 sequence (P02703 23-112 partner): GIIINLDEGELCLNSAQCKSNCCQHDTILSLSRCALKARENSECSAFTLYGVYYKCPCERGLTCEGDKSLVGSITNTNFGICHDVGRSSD
In words: Simulated gastrointestinal digestion of artificial substrate mixture, lipase activity (4-methylumbelliferone marker, HPLC-DAD). To be noted: doses of 1–1000 μg/mL.
Description: To study the inhibitory potential of R. acicularis extracts on the digestive enzymes, we used the standardized static, simulated gastrointestinal digestion method of Minekus et al., based on physiologically relevant conditions of digestion [77]. In brief, the artificial substrate mixture, including ethylidene-p-nitrophenyl-α-D-maltoheptaoside (as a carbohydrate model), Nα-benzoyl-L-arginine-7-amino-4-methylcoumarin hydrochloride (as a protein model) and 4-methylumbelliferyl heptanoate (as a lipid model), was digested with extracts of R. acicularis leaves, flowers, roots and fruits (in doses of 100 μg/mL and 1000 μg/mL) by gastric and intestinal enzymatic and electrolyte mixtures (or juices). […] In a final step, concentrations of specific markers, such as p-nitrophenol, 7-amino-4-methylcoumarin and 4-methylumbelliferone, released from an artificial nutrient mixture, were analyzed by an HPLC-DAD assay. […]
For simulation, the known standardized static gastrointestinal digestion method of Minekus et al. [77] was used with no variation. […] The supernatant was analyzed using an HPLC-DAD assay (Section 3.7) to quantify the level of markers as p-nitrophenol, 7-amino-4-methylcoumarin and 4-methylumbelliferone formed from ethylidene-p-nitrophenyl-α-D-maltoheptaoside, Nα-benzoyl-L-arginine- 7-amino-4-methylcoumarin hydrochloride and 4-methylumbelliferyl heptanoate, respectively. […]

The target of test [2] is T2, α-amylase from the human pancreas (Homo sapiens, UniProt P04746).
T2 construct: α-amylase from human pancreas; purchased Lee Biosolutions, Inc. Cat. No. 120-15; host or cells: human pancreas (tissue-derived)
T2 sequence (P04746 16-511): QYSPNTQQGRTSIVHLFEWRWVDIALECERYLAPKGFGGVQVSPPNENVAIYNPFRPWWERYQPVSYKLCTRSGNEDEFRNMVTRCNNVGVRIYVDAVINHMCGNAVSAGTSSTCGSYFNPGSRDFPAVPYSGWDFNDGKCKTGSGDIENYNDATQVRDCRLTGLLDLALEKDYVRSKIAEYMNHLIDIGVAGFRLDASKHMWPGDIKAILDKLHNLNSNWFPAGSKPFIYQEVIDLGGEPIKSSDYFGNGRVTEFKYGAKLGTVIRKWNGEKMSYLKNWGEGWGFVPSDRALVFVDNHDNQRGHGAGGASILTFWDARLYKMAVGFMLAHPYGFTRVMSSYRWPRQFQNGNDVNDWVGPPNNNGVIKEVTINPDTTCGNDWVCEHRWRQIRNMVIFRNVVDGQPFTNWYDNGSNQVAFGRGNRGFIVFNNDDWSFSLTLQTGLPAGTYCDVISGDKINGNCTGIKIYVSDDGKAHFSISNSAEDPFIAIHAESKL
Briefly: HPLC microfractionation with post-column pancreatic α-amylase inhibition (dyed starch). To be noted: HPLC zone of R. acicularis leaf extract (July sample), 30 s fractions. Here is the method: The probe of the extract was separated by HPLC, and fractions were eluted every 30 sec, collected, dried and mixed with pancreatic α-amylase. The hydrolytic activity of amylase was studied spectrophotometrically using starch azure as a substrate.
HPLC-PDA-ESI-tQ-MS conditions (Section 3.4) were used to separate the enlarged volume of R. acicularis leaf extract (July sample; 25 μL). The eluates (60 µL) were collected every 30 s by an automated fraction collector, a Shimadzu FRC-10A, and dried under a stream of N2. The eluate residue was dissolved in 50% methanol (50 µL) and added to 50 µL of water, 2.5 mL of Remazol-Brilliant-Blue-R-dyed starch (2% suspension in phosphate buffer, pH of 6.8) and 500 μL α-amylase from the human pancreas (0.4 U/mL), incubated for 50 min (37 °C) and the absorbance was measured at 620 nm. […] The value of 100% destruction of Remazol-Brilliant-Blue-R-dyed starch (or 0% content of intact starch compound) was measured for the eluate with a retention time of 0.5–1.0 min.

For a further test, the target named is T3, human pancreas α-amylase (Homo sapiens, UniProt P04746).
T3 construct: α-amylase from human pancreas; purchased Lee Biosolutions, Inc. Cat. No. 120-15; host or cells: human pancreas (tissue-derived)
T3 sequence (P04746 16-511): T2 sequence (P04746 16-511)
Briefly: α-Amylase inhibitory activity, microplate spectrophotometric assay. To be noted: mean ± S.D.; read-out: IC50 against human pancreas α-amylase (converted). The source says: (§1) The α-amylase-inhibiting potential of rugosin D was studied using a microplate spectrophotometric assay with three mammalian amylases, including α-amylase from porcine pancreas, α-amylase from human saliva and α-amylase from human pancreas.

For the next test, the target named is T4, human saliva α-amylase (Homo sapiens, UniProt P0DUB6).
T4 construct: α-amylase from human saliva; purchased Sigma-Aldrich Cat. No. 0521; host or cells: human saliva
T4 sequence (P0DUB6 16-511): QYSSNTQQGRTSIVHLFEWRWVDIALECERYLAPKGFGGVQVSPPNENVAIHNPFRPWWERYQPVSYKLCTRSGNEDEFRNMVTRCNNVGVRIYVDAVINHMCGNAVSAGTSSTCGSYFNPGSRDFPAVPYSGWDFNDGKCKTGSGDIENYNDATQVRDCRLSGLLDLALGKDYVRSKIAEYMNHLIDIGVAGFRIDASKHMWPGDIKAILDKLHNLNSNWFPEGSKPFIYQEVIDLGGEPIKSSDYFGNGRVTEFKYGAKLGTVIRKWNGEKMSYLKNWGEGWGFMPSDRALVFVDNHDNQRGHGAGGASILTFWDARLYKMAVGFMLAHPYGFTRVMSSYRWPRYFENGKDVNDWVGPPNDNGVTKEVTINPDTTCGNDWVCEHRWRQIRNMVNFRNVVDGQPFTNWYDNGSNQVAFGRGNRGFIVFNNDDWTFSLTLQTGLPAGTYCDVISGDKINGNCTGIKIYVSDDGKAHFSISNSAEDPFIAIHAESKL
The description is as above. To be noted: mean ± S.D.; read-out: IC50 against human saliva α-amylase (converted).
Description: as §1

The target in test [3] is T5, porcine pancreas α-amylase (Sus scrofa, UniProt P00690).
T5 construct: α-amylase from porcine pancreas; purchased Sigma-Aldrich Cat. No. 6255; host or cells: porcine pancreas (tissue-derived)
T5 sequence (P00690 16-511): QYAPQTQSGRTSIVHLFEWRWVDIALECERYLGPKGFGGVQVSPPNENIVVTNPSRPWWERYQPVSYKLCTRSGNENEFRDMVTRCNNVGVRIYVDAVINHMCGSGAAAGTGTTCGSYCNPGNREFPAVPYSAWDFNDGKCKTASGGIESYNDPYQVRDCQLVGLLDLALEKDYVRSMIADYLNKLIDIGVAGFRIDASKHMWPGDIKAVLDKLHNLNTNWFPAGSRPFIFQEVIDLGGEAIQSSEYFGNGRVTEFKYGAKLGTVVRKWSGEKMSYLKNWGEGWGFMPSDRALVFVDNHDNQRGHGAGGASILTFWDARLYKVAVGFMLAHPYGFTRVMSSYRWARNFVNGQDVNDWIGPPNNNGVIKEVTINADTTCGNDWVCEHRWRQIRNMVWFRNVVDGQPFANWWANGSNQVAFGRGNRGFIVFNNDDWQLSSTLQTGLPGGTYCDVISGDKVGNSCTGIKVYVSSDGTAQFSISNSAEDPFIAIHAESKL
The test is described as above. To be noted: mean ± S.D.; read-out: IC50 against porcine pancreas α-amylase (converted).
Description: as §1

As to `O=C(O[C@@H]1O[C@@H]2COC(=O)c3cc(Oc4c(C(=O)O[C@@H]5O[C@@H]6COC(=O)c7cc(O)c(O)c(O)c7-c7c(cc(O)c(O)c7O)C(=O)O[C@H]6[C@H](OC(=O)c6cc(O)c(O)c(O)c6)[C@H]5OC(=O)c5cc(O)c(O)c(O)c5)cc(O)c(O)c4O)c(O)c(O)c3-c3c(cc(O)c(O)c3O)C(=O)O[C@H]2[C@H](OC(=O)c2cc(O)c(O)c(O)c2)[C@H]1OC(=O)c1cc(O)c(O)c(O)c1)c1cc(O)c(O)c(O)c1` [Rugosin D], the “Inhibition of lipase activity in simulated digestion (in words)” value in test [1] is recorded as “not substantially inhibited”. For the same molecule, the “Starch protected (starch content as percentage of initial) after reaction with pancreatic amylase” value in test [2] is 82–95%. Also, the half-maximal inhibitory concentration (IC50) at human pancreas α-amylase was 16.4 µM; on human saliva α-amylase, 36 µM; in test [3] it was 17.1 µM.

A word on the IC50: it is the point on the concentration scale where inhibition reaches its midpoint.
